Experimental findings from US20230192617A1, “AZABICYCLIC(THIO)AMIDES AS FUNGICIDAL COMPOUNDS” (Bayer CropScience Aktiengesellschaft, priority 2020, published 2023) are described below.

Data set [1] in a line: Measurement of Log P values by HPLC on reversed phase columns (EEC directive 79/831 Annex V.A8). The format is physicochemical. As to conditions: reversed phase HPLC column, method [a]: LC-UV, acidic range, 0.1% formic acid in water and acetonitrile as eluent. Put shortly:
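Reversed-phase HPLC with UV detection per EEC 79/831 Annex V.A8, linear 10–95% acetonitrile gradient. Aqueous eluent: 0.1% formic acid (acidic), 0.001 M ammonium acetate (neutral), or 0.1% phosphoric acid (acidic); multiple values in one method joined by "+".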

Data set [2] deals with Alternaria brassicae. In words: In vivo preventive test on Alternaria brassicae (leaf spot on radish or cabbage). As to conditions: 500 ppm of active ingredient, preventive spray on radish or cabbage, evaluated 3 to 4 days after inoculation, read-out: efficacy. Put shortly: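 Young radish or cabbage plants were sprayed with compound dissolved in DMSO/acetone/Tween 80 and diluted in water; controls received solvent only. Inoculation by spraying A. brassicae spore suspension 24 h later, then 3–4 days at 20 °C and 100% relative humidity.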

Data set [3] deals with Pyrenophora teres. The experiment in a line: In vivo preventive test on Pyrenophora teres (net blotch on barley). As to conditions: 240 h, 500 ppm of active ingredient, preventive spray on barley, evaluated 10 days after inoculation, read-out: efficacy. Put shortly:
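Young barley plants sprayed preventively with compound formulated in DMSO/acetone/Tween 80 and diluted in water; controls got solvent only. Inoculated 24 hours later with P. teres spore suspension, then held 48 hours at 20° C, 100% RH and 8 days at 20° C, 70-80% RH.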

Data set [4] deals with Sphaerotheca fuliginea. In words: In vivo preventive test on Sphaerotheca fuliginea (powdery mildew on cucurbits). As to conditions: Podosphaera fuliginea, 192 h; 500 ppm of active ingredient; preventive spray on gherkin; evaluated 8 days after inoculation; read-out: efficacy. Put shortly:
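Young gherkin plants were sprayed with compound in DMSO/acetone/Tween 80 diluted in water. They were inoculated 24 h later with a spore suspension of Sphaerotheca fuliginea. Plants were then kept for 8 days at 20 °C and 70–80% relative humidity.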

The subject of data set [5] is Colletotrichum lindemuthianum. The experiment in a line: In vivo preventive test on Colletotrichum lindemuthianum (leaf spot on bean). As to conditions: 168 h, 500 ppm of active ingredient, preventive spray on bean, evaluated 7 days after inoculation, read-out: efficacy. Put shortly:
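Young bean plants sprayed with compound in DMSO/acetone/Tween 80 diluted in water; solvent-only controls. Inoculated 24 h later with C. lindemuthianum spore suspension, then kept 24 h at 20 °C/100% RH and 6 days at 20 °C/90% RH.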

Data set [6] concerns Alternaria alternata. The experiment in a line: Alternaria alternata in vitro cell test. Type of data set: cell-based. As to conditions: 120 h, 20 ppm of active ingredient, liquid culture, 5 days incubation, spectrometric measurement of mycelium growth, read-out: efficacy (inhibition of fungal growth). Put shortly: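 Liquid culture assay in which A. alternata spores in medium received DMSO-solubilized compound (final DMSO ≤1%). After 5 days, mycelium growth was measured spectrometrically. Inhibition was calculated against fungicide-free control wells.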

The subject of data set [7] is Colletotrichum lindemuthianum. In words: B-8. Colletotrichum lindemuthianum in vitro cell test. The format is cell-based. As to conditions: 144 h, 20 ppm of active ingredient, 6 days incubation, liquid culture, absorbance, read-out: efficacy (inhibition of fungal growth). Put shortly: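 Spore suspension of C. lindemuthianum in liquid medium exposed to DMSO-solubilized compounds (final DMSO ≤1%) for 6 days. Mycelial growth read by absorbance, with inhibition calculated relative to compound-free control wells.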

Data set [8] concerns Septoria tritici. The experiment in a line: B-9. Septoria tritici in vitro cell test. The format is cell-based. As to conditions: Zymoseptoria tritici, 168 h; 20 ppm of active ingredient; 7 days incubation; liquid culture, absorbance; read-out: efficacy (inhibition of fungal growth). An outline of the steps:
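Compounds from DMSO stocks (final DMSO ≤1%) were added to liquid medium containing S. tritici spores to test inhibition of germination and mycelial growth. After 7 days, mycelium growth was read spectrometrically and inhibition derived from absorbance versus fungicide-free control wells.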

Data set [9] has as its system Pyrenophora teres. In words: B-10. Pyrenophora teres in vitro cell test. The format is cell-based. As to conditions: 144 h, 20 ppm of active ingredient, 6 days incubation, liquid culture, absorbance, read-out: efficacy (inhibition of fungal growth). An outline of the steps: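 Liquid-culture assay on a P. teres spore suspension with compounds added to the medium from DMSO solutions, final DMSO ≤1%. Mycelium growth read spectrometrically after 6 days. Inhibition calculated from absorbance against untreated control wells.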

In data set [10] the test system is Botrytis cinerea. The experiment in a line: B-11. Botrytis cinerea in vitro cell test. Type of data set: cell-based. As to conditions: 144 h, 20 ppm of active ingredient, 6 days incubation, liquid culture, absorbance, read-out: efficacy (inhibition of fungal growth). An outline of the steps: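 B. cinerea spores were grown in liquid culture with compound (DMSO ≤1% final). Mycelium growth was measured spectrometrically after 6 days, with inhibition taken as absorbance relative to untreated control wells.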

The test system of data set [11] is Botrytis cinerea. In words: In vivo preventive test on Botrytis cinerea (grey mould). As to conditions: 500 ppm of active ingredient, preventive spray on gherkin or cabbage, evaluated 4 to 5 days after inoculation, read-out: efficacy. Put shortly:
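Young gherkin or cabbage plants were sprayed with compound in DMSO/acetone/Tween 80 diluted in water, then inoculated 24 hours later with a B. cinerea spore suspension. Incubation lasted 4 to 5 days: gherkin at 17° C., 90% relative humidity; cabbage at 20° C., 100% relative humidity.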

Usually chromatographic logP stands for lipophilicity estimated from chromatographic retention. Higher therefore signals higher lipophilicity. Usually inhibition stands for the drop in the measured response relative to a control, in per cent. `Cc1cc(Cl)ccc1C(F)(F)CNC(=O)c1c(Oc2cccc(C(F)(F)F)c2)nnc2c1CCC2` [I-164] yielded a chromatographic logP in data set [1] of 4.11. Also, the pest or weed control at 500 ppm in [2], in data set [3], in data set [4] and in data set [5] was 90 to 100% throughout. Moreover, the inhibition at 20 ppm in data set [6], in [7], in data set [8], in [9] and in [10] was 90 to 100% throughout.
As for `O=C(NC[C@H](F)c1ccc(Cl)cc1Cl)c1c(Oc2cccc(C(F)(F)F)c2)nnc2ccccc12` (racemic) [I-219], in [1], the chromatographic logP worked out at 4.55. The pest or weed control at 500 ppm in data set [2], in [11], in data set [3], in [4] and in [5] was 90 to 100% each time. The inhibition at 20 ppm in data set [6] was 80 to 89%; in data set [8], 80 to 89%; in data set [9] it was 70 to 79%; in data set [10], 90 to 100%.
Compound `Cc1ccc([C@@H](F)CNC(=O)c2c(Oc3cccc(C(F)(F)F)c3)nnc3c2OCC(C)(C)O3)c(C)c1` (racemic) [I-155] registered a chromatographic logP in [1] of 3.91. Besides, the pest or weed control at 500 ppm in data set [2], in data set [3], in [4] and in [5] was 90 to 100% in each case. The inhibition at 20 ppm in [6], in data set [7], in [8], in data set [9] and in data set [10] was 90 to 100% throughout.
`O=C(NCC(F)c1ccc(Cl)cc1Cl)c1c(Oc2cccc(C3CC3)c2F)nnc2c1CCCC2` (centres unmarked) [I-184] displayed a chromatographic logP in data set [1] of 4.17. In addition, the pest or weed control at 500 ppm in data set [2], in data set [3], in data set [4] and in data set [5] was 90 to 100% in each case. Also, the inhibition at 20 ppm in [6], in data set [7], in data set [8], in data set [9] and in data set [10] was 90 to 100% in each case.
Compound `Cc1cc(Cl)ccc1C(F)(F)CNC(=O)c1c(Oc2cccc(C(F)(F)F)c2)nnc2c1COCC2` [I-125] returned a chromatographic logP in data set [1] of 3.85. For the same compound, the pest or weed control at 500 ppm in data set [2] lay in the range of 90 to 100%; in [11], 90 to 100%; in data set [3] it was 70 to 79%; in [4], 90 to 100%; in [5], 80 to 89%. The inhibition at 20 ppm in [6], in data set [8], in data set [9] and in data set [10] was 90 to 100% throughout.
